Biological target: Full-length inactive AKT1 (Homo sapiens, UniProt P31749)
Assay: Inactive Akt Alpha Screen Assay
Type: biochemical
Conditions: values not marked with "*"; read-out: Akt1 IC50, (AlphaScreen)
Summary of the method: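 AlphaScreen read-out (excitation 640 nm, emission 570 nm) after 90 min incubation at room temperature in the dark. Signal comes from crosstide phosphorylation by AKT1, which was activated by added PDK1, MAPKAPK2, ATP and lipid vesicles, captured via phospho-AKT substrate antibody and streptavidin beads.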

Full-length inactive AKT1, sequence (P31749 whole entry): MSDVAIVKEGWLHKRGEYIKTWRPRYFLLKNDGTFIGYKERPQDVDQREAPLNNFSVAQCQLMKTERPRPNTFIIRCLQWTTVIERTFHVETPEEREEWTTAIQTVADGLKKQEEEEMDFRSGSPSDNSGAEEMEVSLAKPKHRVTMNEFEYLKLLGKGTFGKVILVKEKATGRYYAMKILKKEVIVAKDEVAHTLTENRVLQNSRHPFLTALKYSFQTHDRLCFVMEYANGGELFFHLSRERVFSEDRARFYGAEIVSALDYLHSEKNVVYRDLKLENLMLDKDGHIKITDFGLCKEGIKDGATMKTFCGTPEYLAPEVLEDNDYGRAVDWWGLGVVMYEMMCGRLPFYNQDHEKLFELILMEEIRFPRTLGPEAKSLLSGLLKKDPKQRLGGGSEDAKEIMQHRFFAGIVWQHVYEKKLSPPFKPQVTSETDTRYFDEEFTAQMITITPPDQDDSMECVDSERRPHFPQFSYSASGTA

| IC50 | SMILES |
| --- | --- |
| 230 nM | Cc1cnc2c(c1)nc(-c1cccnc1N)n2-c1ccc(CNC(=O)c2ccc(Cl)c(Cl)c2)cc1 [Example 266, N-(4-(2-(2-aminopyridin-3-yl)-6-methyl-3H-imidazo[4,5-b]pyridin-3-yl)benzyl)-3,4-dichlorobenzamide] |
| 590 nM | Cc1cnc2c(c1)nc(-c1cccnc1N)n2-c1ccc(CNC(=O)c2cccc(C(F)(F)F)c2)cc1 [Example 267, N-(4-(2-(2-aminopyridin-3-yl)-6-methyl-3H-imidazo[4,5-b]pyridin-3-yl)benzyl)-3-(trifluoromethyl)benzamide] |
| 590 nM | Cc1cnc2c(c1)nc(-c1cccnc1N)n2-c1ccc(CNC(=O)c2cccnc2)cc1 [Example 268, N-(4-(2-(2-aminopyridin-3-yl)-6-methyl-3H-imidazo[4,5-b]pyridin-3-yl)benzyl)nicotinamide] |
| 160 nM | Cc1cnc2c(c1)nc(-c1cccnc1N)n2-c1ccc(CNC(=O)c2ccc(C)c(C)c2)cc1 [Example 269, N-(4-(2-(2-aminopyridin-3-yl)-6-methyl-3H-imidazo[4,5-b]pyridin-3-yl)benzyl)-3,4-dimethylbenzamide] |
| 240 nM | COC(=O)c1cccc(C(=O)NCc2ccc(-n3c(-c4cccnc4N)nc4cc(C)cnc43)cc2)c1 [Example 270, methyl 3-((4-(2-(2-aminopyridin-3-yl)-6-methyl-3H-imidazo[4,5-b]pyridin-3-yl)benzyl)carbamoyl)benzoate] |
| 640 nM | Cc1cnc2c(c1)nc(-c1cccnc1N)n2-c1ccc(CNC(=O)c2cncnc2)cc1 [Example 271, N-(4-(2-(2-aminopyridin-3-yl)-6-methyl-3H-imidazo[4,5-b]pyridin-3-yl)benzyl)pyrimidine-5-carboxamide] |
| 210 nM | Cc1cnc2c(c1)nc(-c1cccnc1N)n2-c1ccc(CNC(=O)c2ccc(Cl)c(C)c2)cc1 [Example 272, N-(4-(2-(2-aminopyridin-3-yl)-6-methyl-3H-imidazo[4,5-b]pyridin-3-yl)benzyl)-4-chloro-3-methylbenzamide] |
| 220 nM | Cc1cnc2c(c1)nc(-c1cccnc1N)n2-c1ccc(CNC(=O)C2CCCC2)cc1 [Example 273, N-(4-(2-(2-aminopyridin-3-yl)-6-methyl-3H-imidazo[4,5-b]pyridin-3-yl)benzyl)cyclopentanecarboxamide] |
| 51000 nM | Cc1cnc2c(c1)nc(-c1cccnc1N)n2-c1ccc(CNC(=O)c2cccnc2F)cc1 [Example 274, N-(4-(2-(2-aminopyridin-3-yl)-6-methyl-3H-imidazo[4,5-b]pyridin-3-yl)benzyl)-2-fluoronicotinamide] |
| 110 nM | Cc1cnc2c(c1)nc(-c1cccnc1N)n2-c1ccc(CNC(=O)c2ccc(Cl)cc2Cl)cc1 [Example 275, N-(4-(2-(2-aminopyridin-3-yl)-6-methyl-3H-imidazo[4,5-b]pyridin-3-yl)benzyl)-2,4-dichlorobenzamide] |
| 780 nM | Cc1cnc2c(c1)nc(-c1cccnc1N)n2-c1ccc(CNC(=O)c2cncs2)cc1 [Example 276, N-(4-(2-(2-aminopyridin-3-yl)-6-methyl-3H-imidazo[4,5-b]pyridin-3-yl)benzyl)thiazole-5-carboxamide] |
| 390 nM | Cc1cc(C)cc(C(=O)NCc2ccc(-n3c(-c4cccnc4N)nc4cc(C)cnc43)cc2)c1 [Example 277, N-(4-(2-(2-aminopyridin-3-yl)-6-methyl-3H-imidazo[4,5-b]pyridin-3-yl)benzyl)-3,5-dimethylbenzamide] |
| 120 nM | Cc1cnc2c(c1)nc(-c1cccnc1N)n2-c1ccc(CNC(=O)c2ccc(C)c(F)c2)cc1 [Example 278, N-(4-(2-(2-aminopyridin-3-yl)-6-methyl-3H-imidazo[4,5-b]pyridin-3-yl)benzyl)-3-fluoro-4-methylbenzamide] |
| 110 nM | Cc1cnc2c(c1)nc(-c1cccnc1N)n2-c1ccc(CNC(=O)c2ccc3ncccc3c2)cc1 [Example 279, N-(4-(2-(2-aminopyridin-3-yl)-6-methyl-3H-imidazo[4,5-b]pyridin-3-yl)benzyl)quinoline-6-carboxamide] |
| 110 nM | Cc1cnc2c(c1)nc(-c1cccnc1N)n2-c1ccc(CNC(=O)c2ccc(C)s2)cc1 [Example 280, N-(4-(2-(2-aminopyridin-3-yl)-6-methyl-3H-imidazo[4,5-b]pyridin-3-yl)benzyl)-5-methylthiophene-2-carboxamide] |
| 71 nM | Cc1cnc2c(c1)nc(-c1cccnc1N)n2-c1ccc(CNC(=O)c2ccccc2C(F)(F)F)cc1 [Example 281, N-(4-(2-(2-aminopyridin-3-yl)-6-methyl-3H-imidazo[4,5-b]pyridin-3-yl)benzyl)-2-(trifluoromethyl)benzamide] |
| 140 nM | Cc1cnc2c(c1)nc(-c1cccnc1N)n2-c1ccc(CNC(=O)c2cccc(Cl)c2)cc1 [Example 282, N-(4-(2-(2-aminopyridin-3-yl)-6-methyl-3H-imidazo[4,5-b]pyridin-3-yl)benzyl)-3-chlorobenzamide] |

| IC50 | SMILES |
| --- | --- |
| 220 nM | Cc1cnc2c(c1)nc(-c1cccnc1N)n2-c1ccc(CNC(=O)c2cc(F)ccc2F)cc1 [Example 283, N-(4-(2-(2-aminopyridin-3-yl)-6-methyl-3H-imidazo[4,5-b]pyridin-3-yl)benzyl)-2,5-difluorobenzamide] |
| 770 nM | Cc1cnc2c(c1)nc(-c1cccnc1N)n2-c1ccc(CNC(=O)c2ccccn2)cc1 [Example 284, N-(4-(2-(2-aminopyridin-3-yl)-6-methyl-3H-imidazo[4,5-b]pyridin-3-yl)benzyl)picolinamide] |
| 850 nM | Cc1cnc2c(c1)nc(-c1cccnc1N)n2-c1ccc(CNC(=O)c2cnccn2)cc1 [Example 285, N-(4-(2-(2-aminopyridin-3-yl)-6-methyl-3H-imidazo[4,5-b]pyridin-3-yl)benzyl)pyrazine-2-carboxamide] |
| 740 nM | Cc1cnc2c(c1)nc(-c1cccnc1N)n2-c1ccc(CNC(=O)Cc2nnn[nH]2)cc1 [Example 286, N-(4-(2-(2-aminopyridin-3-yl)-6-methyl-3H-imidazo[4,5-b]pyridin-3-yl)benzyl)-2-(1H-tetrazol-5-yl)acetamide] |
| 450 nM | CC(C)(C)OC(=O)NCc1ccc(-n2c(-c3cccnc3N)nc3ccc(-c4ccc(CO)cc4)nc32)cc1 [Example 288, tert-butyl 4-(2-(2-aminopyridin-3-yl)-5-(4-(hydroxymethyl)phenyl)-3H-imidazo[4,5-b]pyridin-3-yl)benzylcarbamate] |
| 56 nM | CC(=O)Nc1ccc(-c2ccc3nc(-c4cccnc4N)n(-c4ccc(CNC(=O)c5cccc(F)c5)cc4)c3n2)cc1 [Example 291, N-(4-(5-(4-acetamidophenyl)-2-(2-amino-pyridin-3-yl)-3H-imidazo[4,5-b]pyridin-3-yl)benzyl)-3-fluorobenzamide] |
| 9.5 nM | CC(=O)Nc1cccc(-c2ccc3nc(-c4cccnc4N)n(-c4ccc(CNC(=O)c5ccc(C)c(F)c5)cc4)c3n2)c1 [Example 293, N-(4-(5-(3-acetamidophenyl)-2-(2-aminopyridin-3-yl)-3H-imidazo[4,5-b]pyridin-3-yl)benzyl)-3-fluoro-4-methylbenzamide] |
| 14 nM | Cc1ccc2cc(NC(=O)Cc3ccc(-n4c(-c5cccnc5N)nc5cc(Br)cnc54)cc3)ccc2n1 [Example 298, 2-(4-(2-(2-aminopyridin-3-yl)-6-bromo-3H-imidazo[4,5-b]pyridin-3-yl)phenyl)-N-(2-methylquinolin-6-yl)acetamide] |
| 130 nM | Nc1ncccc1-c1nc2cc(Br)cnc2n1-c1ccc(CC(=O)Nc2cccc(F)c2)cc1 [Example 299, 2-(4-(2-(2-aminopyridin-3-yl)-6-bromo-3H-imidazo[4,5-b]pyridin-3-yl)phenyl)-N-(3-fluorophenyl)acetamide] |
| 170 nM | Cc1ccc2nc(-c3cccnc3N)n(-c3ccc(CC(=O)Nc4cccc(F)c4)cc3)c2n1 [Example 300, 2-(4-(2-(2-aminopyridin-3-yl)-5-methyl-3H-imidazo[4,5-b]pyridin-3-yl)phenyl)-N-(3-fluorophenyl)acetamide] |
| 66 nM | Cc1ccc2nc(-c3cccnc3N)n(-c3ccc(CC(=O)Nc4ccccc4)cc3)c2n1 [Example 301, 2-(4-(2-(2-aminopyridin-3-yl)-5-methyl-3H-imidazo[4,5-b]pyridin-3-yl)phenyl)-N-phenylacetamide] |
| 78 nM | Cc1ccc2cc(NC(=O)Cc3ccc(-n4c(-c5cccnc5N)nc5ccc(C)nc54)cc3)ccc2n1 [Example 302, 2-(4-(2-(2-aminopyridin-3-yl)-5-methyl-3H-imidazo[4,5-b]pyridin-3-yl)phenyl)-N-(2-methylquinolin-6-yl)acetamide] |
| 20 nM | Nc1ncccc1-c1nc2cc(Br)cnc2n1-c1ccc(NC(=O)c2ccccc2)cc1 [Example 304, N-(4-(2-(2-aminopyridin-3-yl)-6-bromo-3H-imidazo[4,5-b]pyridin-3-yl)phenyl)benzamide] |
| 12 nM | Nc1ncc(-c2ccc3nc(-c4cccnc4N)n(-c4ccc(CNC(=O)c5cccc(F)c5)cc4)c3n2)cn1 [Example 306, N-(4-(2-(2-aminopyridin-3-yl)-5-(2-aminopyrimidin-5-yl)-3H-imidazo[4,5-b]pyridin-3-yl)benzyl)-3-fluorobenzamide] |
| 23 nM | Nc1ncccc1-c1nc2ccc(-c3cc[nH]c3)nc2n1-c1ccc(CNC(=O)c2cccc(F)c2)cc1 [Example 309, N-(4-(2-(2-aminopyridin-3-yl)-5-(1H-pyrrol-3-yl)-3H-imidazo[4,5-b]pyridin-3-yl)benzyl)-3-fluorobenzamide] |
| 79 nM | Cc1noc(C)c1-c1ccc2nc(-c3cccnc3N)n(-c3ccc(CNC(=O)c4cccc(F)c4)cc3)c2n1 [Example 310, N-(4-(2-(2-aminopyridin-3-yl)-5-(3,5-dimethylisoxazol-4-yl)-3H-imidazo[4,5-b]pyridin-3-yl)benzyl)-3-fluorobenzamide] |
| 29 nM | Nc1ncccc1-c1nc2ccc(-c3c[nH]c(=O)[nH]c3=O)nc2n1-c1ccc(CNC(=O)c2cccc(F)c2)cc1 [Example 311, N-(4-(2-(2-aminopyridin-3-yl)-5-(2,4-dioxo-1,2,3,4-tetrahydropyrimidin-5-yl)-3H-imidazo[4,5-b]pyridin-3-yl)benzyl)-3-fluorobenzamide] |
